Laboratory results as given in patent publication US20230172958A1, “USE OF COMPOUNDS FOR TREATING VIRAL INFECTIONS” (priority 2020, published 2023).

Columns and labels:
V-ATPase = V-ATPase ELISA (Human V-Type Proton ATPase ELISA kit) on treated MDAMB231 cells; type: cell-based; details: 100 nM (0.1 μM)/10,000 cells, 48 hours
Experimental: An ELISA test was performed using Human V-Type Proton ATPase ELISA kit (My BioSource Catlog no: MBS911862) to determine the V-ATPase inhibitory effect of the compounds of the present invention.
Procedure: 1.0 million cells of MDAMB231 (cell line rich in V-ATPase) were plated on 60 mm plates for 24 hours at 37° C. and 5% CO2. The cells were treated with the test compounds (Formula A to U) at a concentration of 100 nM (0.1 μM)/10,000 cells and incubated for 48 hours. After incubation the supernatant was discarded, the cells were washed with D.P.B.S. (Dulbecco's phosphate-buffered saline), scraped and stored at −80° C. for 48 hours. The cells were thawed, vortexed, homogenized for 7 minutes, followed by centrifugation for 3 minutes at 3000 R.P.M. The supernatant was taken for V-ATPase Assay.
Standards and samples were pipetted into the wells. Antibody specific for V-ATPase was pre-coated onto a microplate. Any V-ATPase present in the standard /sample would get bound by the immobilized antibody. After the incubation period any unbound substances were removed by washing and a biotin-conjugated antibody specific for V-ATPase was added to the wells and plates were re-incubated at 37° C. and 5% CO2. After washing, avidin conjugated Horseradish Peroxidase (HRP) was added to the wells. Following a wash to remove any unbound avidin-enzyme reagent, a substrate solution was added to the wells and colour developed was in proportion to the amount of V-ATPase bound in the initial step. The colour development was stopped, and the optical density was measured at 450 nm spectrophotometrically. The concentration of V-ATPase was then calculated by substituting the optical density in the regression equation obtained from the standards. Percent (%) reduction in V-ATPase was calculated by subtracting the amount of V-ATPase obtained from the untreated/conc. of V-ATPase in untreated X100.

[1] = test system: Human Peripheral Blood Lymphocytes; assay: MTT toxicity assay on normal cells; type: cell-based; details: 48 hours
Experimental: Toxicity studies of compounds of the present invention on normal cells The toxicity study was performed on Human Peripheral Blood Lymphocytes obtained differential centrifugation of defibrinated blood. MTT assay for compound of the present invention was performed to determine its toxicity. MTT assay is a simple and sensitive assay where, metabolic reducing activity of the cells is measured. It was carried out in the following manner.
A required volume of cell suspension was prepared as per the cell plating efficiency. 200 μl of prepared cell suspension was added in labelled 96 well plates and the plates were placed in an incubator for 18-24 hours at 37° C. and 5% CO2. Then, 2 μl of respective compound dilution was added and the plates were placed in the incubator for 48 hours at 37° C. and 5% CO2. The suspension was aspirated from the plates and 100 μl of working MTT solution (0.5 mg/ml MTT prepared from 5 mg/ml MTT stock in 1× complete media) was added. The plates were incubated in the incubator for 4 hours at 37° C. and 5% CO2. The plates were spinned down, supernatant removed, 200 μl DMSO was added, mixed gently and placed in the incubator for 10 minutes at 37° C. and 5% CO2. The absorbance at 570 nm was read and percentage viability and IC50 value of the compounds was calculated using regression analysis.

SMILES	reduction of V-ATPase (%) (V-ATPase)	IC50 (μM) [1]
COc1cc2c(OC(=O)c3cccn3C)c3c(c(-c4ccc5c(c4)OCO5)c2cc1OC)C(=O)OC3 [Compound of Formula B, 9-(benzo[d][1,3]dioxol-5-yl)-1,3-dihydro-6,7-dimethoxy-1-oxonaphtho[2,3-c]furan-4-yl 1-methyl-1H-pyrrole-2-carboxylate]	15.33	No activity (Nontoxic)
COc1cc2c(OC(=O)C(c3ccccc3)C3CCCC3)c3c(c(-c4ccc5c(c4)OCO5)c2cc1OC)C(=O)OC3 (stereo not drawn) [Compound of Formula C, 9-(benzo[d][1,3]dioxol-5-yl)-1,3-dihydro-6,7-dimethoxy-1-oxonaphtho[2,3-c]furan-4-yl 2-cyclopentyl-2-phenylacetate]	14.69	No activity (Nontoxic)
O=C(Nc1ccc(-c2ccc3c(c2)OCO3)c2ccccc12)c1ccco1 [Compound of Formula G, N-(1-(benzo[d][1,3]dioxol-5-yl)naphthalen-4-yl)furan-2-carboxamide]	62.37	–
c1ccc(COc2ccc(-c3ccc4c(c3)OCO4)c3cccnc23)cc1 [Compound of Formula H, 5-(benzo[d][1,3]dioxol-5-yl)-8-(benzyloxy)quinoline]	61.34	–
O=S(=O)(Nc1ccc(-c2ccc3c(c2)OCO3)c2ccccc12)c1ccccc1 [Compound of Formula I, N-(1-(benzo[d][1,3]dioxol-5-yl)naphthalen-4-yl)benzenesulphonamide]	20.56	No activity (Nontoxic)
O=S(=O)(Nc1ccc(-c2ccc3c(c2)OCO3)c2ccccc12)c1ccc(F)cc1 [Compound of Formula J, N-(1-(benzo[d][1,3]dioxol-5-yl)naphthalen-4-yl)-4-fluorobenzenesulphonamide]	60.96	–
O=C(CN1CCNCC1)Nc1ccc(-c2ccc3c(c2)OCO3)c2ccccc12 [Compound of Formula K, N-(1-(benzo[d][1,3]dioxol-5-yl)naphthalen-4-yl)-2-(piperazin-1-yl)acetamide]	28.05	–
c1ccc2c(-c3ccc4c(c3)OCO4)ccc(OCCCCN3CCOCC3)c2c1 [Compound of Formula M, 4-(4-(1-(benzo[d][1,3]dioxol-5-yl)naphthalen-4-yloxy)butyl)morpholine]	76.16	–
c1ccc2c(-c3ccc4c(c3)OCO4)ccc(OCCCCNC3CCCCC3)c2c1 [Compound of Formula N, N-(4-(1-(benzo[d][1,3]dioxol-5-yl)naphthalen-4-yloxy)butyl)cyclohexanamine]	6.3	–
c1ccc2c(-c3ccc4c(c3)OCO4)ccc(OCCN3CCOCC3)c2c1 [Compound of Formula O, 4-(2-(1-(benzo[d][1,3]dioxol-5-yl)naphthalen-4-yloxy)ethyl)morpholine]	20.26	No activity (Nontoxic)
c1cc2c(cc1-c1ccc(OCCCCCCNC3CCCCC3)c3c1CCCC3)OCO2 [Compound of Formula Q, N-(6-(5-(benzo[d][1,3]dioxol-5-yl)-1,2,3,4-tetrahydronaphthalen-8-yloxy)hexyl)cyclohexanamine]	77.42	–
C=CCNCCCCCCOc1ccc(-c2ccc3c(c2)OCO3)c2c1CCCC2 [Compound of Formula R, 6-(5-(benzo[d][1,3]dioxol-5-yl)-1,2,3,4-tetrahydronaphthalen-8-yloxy)-N-allylhexan-1-amine]	16.2	–
c1cnc2c(OCCN3CCOCC3)ccc(-c3ccc4c(c3)OCO4)c2c1 [Compound of Formula S, 8-(2-morpholinoethoxy)-5-(benzo[d][1,3]dioxol-5-yl)quinoline]	75.5	–
O=C(CN1CCNCC1)NCCOc1ccc(-c2ccc3c(c2)OCO3)c2ccccc12 [Compound of Formula T, N-(2-(1-(benzo[d][1,3]dioxol-5-yl)naphthalen-4-yloxy)ethyl)-2-(piperazin-1-yl)acetamide]	81.9	–
